Patent US10189840B2, “Substituted tricyclic heterocyclic compounds” (BRISTOL-MYERS SQUIBB COMPANY, priority 2015, dated 2019)

target: TNFα (Homo sapiens (Human), UniProt P01375); experiment: TNF induced HEK-Blue assay; assay type: cell-based; settings: TNFα 0.5 ng/ml; HEK-Blue-CD40L cells, NF-κB-driven secreted alkaline phosphatase reporter; 18 h
Procedure: Test compounds serially diluted in DMSO were plated in an assay plate (Labcyte, Cat. #LP-0200) at final concentrations ranging from 0.004 μM to 25 μM. TNFα (final concentration 0.5 ng/ml) or CD40L (final concentration 30 ng/ml) in assay buffer [DMEM, 4.5 g/l glucose (Gibco, Cat. 21063-029), 10% FBS (Sigma, F4135), 1% Penicillin-Streptomycin (Gibco, Cat. 15140-122), 1% Anti-Anti (Gibco, Cat. 15240-112) and 2 mM L-glutamine (Gibco, Cat. 25030-081)] was then added to the assay plate. After a 30 minute pre-incubation at 37° C. and 5% CO2, HEK-Blue-CD40L cells (InvivoGen, Cat. Code hkb-cd40) containing a NF-κB-driven secreted alkaline phosphatase reporter gene were seeded into the assay plate at a density of 20,000 cells per well. This plate was then incubated for 18 h at 37° C. and 5% CO2. Secreted alkaline phosphatase expression was measured using QUANTI-Blue (InvivoGen, Cat. Code rep-qb1) according to manufacturer's specifications and the assay plate was read on a PerkinElmer Envision at 620 nm.
Inhibition data for the test compound over a range of concentrations was plotted as percentage inhibition of the test compound (100%=maximum inhibition). IC50 values were determined after correcting for background [(sample read−mean of low control)/(mean of high control−mean of low control)] where by the low control is DMSO without stimulation and high control is DMSO with stimulation. The IC50 is defined as the concentration of test compound which produces 50% inhibition and was quantified using the 4 parameter logistic equation to fit the data.
Table 5 lists the IC50 values measured in the TNF induced HEK-Blue assay for Examples 1 to 40 of this invention.

TNFα, sequence (P01375 77-233): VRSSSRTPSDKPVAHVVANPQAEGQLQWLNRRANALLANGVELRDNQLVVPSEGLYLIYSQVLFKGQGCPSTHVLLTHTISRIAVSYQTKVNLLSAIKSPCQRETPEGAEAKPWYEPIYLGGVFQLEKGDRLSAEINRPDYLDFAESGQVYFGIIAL

Q: Which IC50 does the source give for `COc1ccccc1C1CC(O)c2nc3ccc(-c4ccc(C(C)(C)O)cc4)nc3n21` (single isomer, unassigned) [Example 12 (e4), 2-(4-(2-hydroxypropan-2-yl)phenyl)-8-(2-methoxyphenyl)-7,8-dihydro-6H-pyrrolo[2′,1′:2,3]imidazo[4,5-b]pyridin-6-ol] here?
A: 1000 to 10000 nM

Q: With `CC(C)(O)c1ccc(-c2ccc3nc4n(c3n2)C(c2cc(F)ccc2C(F)(F)F)CC4O)cc1` (single isomer, unassigned) [Example 13 (e1), 8-(5-fluoro-2-(trifluoromethyl)phenyl)-2-(4-(2-hydroxypropan-2-yl)phenyl)-7,8-dihydro-6H-pyrrolo[2′,1′:2,3]imidazo[4,5-b]pyridin-6-ol] as the molecule, how does the IC50 read?
A: < 1000 nM

Q: For `CC(C)(O)c1ccc(-c2ccc3nc4n(c3n2)C(c2cc(F)ccc2C(F)(F)F)CC4O)cc1` (single isomer, unassigned) [Example 13 (e2), 8-(5-fluoro-2-(trifluoromethyl)phenyl)-2-(4-(2-hydroxypropan-2-yl)phenyl)-7,8-dihydro-6H-pyrrolo[2′,1′:2,3]imidazo[4,5-b]pyridin-6-ol], which IC50 is on record?
A: 1000 to 10000 nM

Q: `CC(C)(O)c1ccc(-c2ccc3nc4n(c3n2)C(c2cc(F)ccc2C(F)(F)F)CC4O)cc1` (single isomer, unassigned) [Example 13 (e3), 8-(5-fluoro-2-(trifluoromethyl)phenyl)-2-(4-(2-hydroxypropan-2-yl)phenyl)-7,8-dihydro-6H-pyrrolo[2′,1′:2,3]imidazo[4,5-b]pyridin-6-ol] was tested. Which IC50 did it give?
A: 1000 to 10000 nM

Q: Which IC50 does the source give for `CC(C)(O)c1ccc(-c2ccc3nc4n(c3n2)C(c2cc(F)ccc2C(F)(F)F)CC4O)cc1` (single isomer, unassigned) [Example 13 (e4), 8-(5-fluoro-2-(trifluoromethyl)phenyl)-2-(4-(2-hydroxypropan-2-yl)phenyl)-7,8-dihydro-6H-pyrrolo[2′,1′:2,3]imidazo[4,5-b]pyridin-6-ol] here?
A: 1000 to 10000 nM

Q: With `CC(C)(O)c1ccc(-c2ccc3nc4n(c3n2)C(c2ccccc2C(F)(F)F)CC4F)cc1` (single isomer, unassigned) [Example 14 (e1), 2-(4-(6-Fluoro-8-(2-(trifluoromethyl)phenyl)-7,8-dihydro-6H-pyrrolo[2′,1′:2,3]imidazo[4,5-b]pyridin-2-yl)phenyl)propan-2-ol] as the molecule, how does the IC50 read?
A: 1000 to 10000 nM

Q: How did the IC50 turn out when `CC(C)(O)c1ccc(-c2ccc3nc4n(c3n2)C(c2ccccc2C(F)(F)F)CC4F)cc1` (single isomer, unassigned) [Example 14 (e2), 2-(4-(6-Fluoro-8-(2-(trifluoromethyl)phenyl)-7,8-dihydro-6H-pyrrolo[2′,1′:2,3]imidazo[4,5-b]pyridin-2-yl)phenyl)propan-2-ol] was run?
A: < 1000 nM

Q: `CC(C)(O)c1ccc(-c2ccc3nc4n(c3n2)C(c2ccccc2C(F)(F)F)CC4F)cc1` (single isomer, unassigned) [Example 14 (e3), 2-(4-(6-Fluoro-8-(2-(trifluoromethyl)phenyl)-7,8-dihydro-6H-pyrrolo[2′,1′:2,3]imidazo[4,5-b]pyridin-2-yl)phenyl)propan-2-ol] was tested. Which IC50 did it give?
A: 1000 to 10000 nM

Q: How did the IC50 turn out when `CC(C)(O)c1ccc(-c2ccc3nc4n(c3n2)C(c2ccccc2C(F)(F)F)CC4F)cc1` (single isomer, unassigned) [Example 14 (e4), 2-(4-(6-Fluoro-8-(2-(trifluoromethyl)phenyl)-7,8-dihydro-6H-pyrrolo[2′,1′:2,3]imidazo[4,5-b]pyridin-2-yl)phenyl)propan-2-ol] was run?
A: < 1000 nM

Q: How did the IC50 turn out when `CC(C)(O)c1ccc(-c2ccc3nc4n(c3n2)C(c2ccccc2OC(F)F)CC4F)cc1` (single isomer, unassigned) [Example 15 (e2), 2-(4-(8-(2-(difluoromethoxy)phenyl)-6-fluoro-7,8-dihydro-6H-pyrrolo[2′,1′:2,3]imidazo[4,5-b]pyridin-2-yl)phenyl)propan-2-ol] was run?
A: 10000 to 25000 nM

Q: How did the IC50 turn out when `COc1ccc(-c2ccc3nc4n(c3n2)C(c2ccccc2OC(F)F)CC4F)cn1` (single isomer, unassigned) [Example 18 (e1), 8-(2-(difluoromethoxy)phenyl)-6-fluoro-2-(6-methoxypyridin-3-yl)-7,8-dihydro-6H-pyrrolo[2′,1′:2,3]imidazo[4,5-b]pyridine] was run?
A: < 1000 nM

Q: For `COc1ccc(-c2ccc3nc4n(c3n2)C(c2ccccc2OC(F)F)CC4F)cn1` (single isomer, unassigned) [Example 18 (e2), 8-(2-(difluoromethoxy)phenyl)-6-fluoro-2-(6-methoxypyridin-3-yl)-7,8-dihydro-6H-pyrrolo[2′,1′:2,3]imidazo[4,5-b]pyridine], which IC50 is on record?
A: 10000 to 25000 nM

Q: Which IC50 does the source give for `CC(C)(O)c1ccc(-c2ccc3nc4n(c3n2)C(c2ccccc2C2CC2)CC4F)cc1` (single isomer, unassigned) [Example 21 (e1), 2-(4-(8-(2-cyclopropylphenyl)-6-fluoro-7,8-dihydro-6H-pyrrolo[2′,1′:2,3]imidazo[4,5-b]pyridin-2-yl)phenyl)propan-2-ol] here?
A: < 1000 nM

Q: Which IC50 does the source give for `CC(C)(O)c1ccc(-c2ccc3nc4n(c3n2)C(c2ccccc2C2CC2)CC4F)cc1` (single isomer, unassigned) [Example 21 (e2), 2-(4-(8-(2-cyclopropylphenyl)-6-fluoro-7,8-dihydro-6H-pyrrolo[2′,1′:2,3]imidazo[4,5-b]pyridin-2-yl)phenyl)propan-2-ol] here?
A: 1000 to 10000 nM

Q: Which IC50 does the source give for `CC(C)(O)c1ccc(-c2ccc3nc4n(c3n2)C(c2ccccc2C2CC2)CC4F)cc1` (single isomer, unassigned) [Example 21 (e4), 2-(4-(8-(2-cyclopropylphenyl)-6-fluoro-7,8-dihydro-6H-pyrrolo[2′,1′:2,3]imidazo[4,5-b]pyridin-2-yl)phenyl)propan-2-ol] here?
A: < 1000 nM

Q: How did the IC50 turn out when `CC(C)(O)c1ccc(-c2ccc3nc4n(c3n2)C(c2ccccc2OC(F)(F)F)CC4F)cc1` (single isomer, unassigned) [Example 22 (e1), 2-(4-(6-fluoro-8-(2-(trifluoromethoxy)phenyl)-7,8-dihydro-6H-pyrrolo[2′,1′:2,3]imidazo[4,5-b]pyridin-2-yl)phenyl)propan-2-ol] was run?
A: < 1000 nM

Q: Which IC50 does the source give for `CC(C)(O)c1ccc(-c2ccc3nc4n(c3n2)C(c2ccccc2OC(F)(F)F)CC4F)cc1` (single isomer, unassigned) [Example 22 (e2), 2-(4-(6-fluoro-8-(2-(trifluoromethoxy)phenyl)-7,8-dihydro-6H-pyrrolo[2′,1′:2,3]imidazo[4,5-b]pyridin-2-yl)phenyl)propan-2-ol] here?
A: 1000 to 10000 nM

Q: For `CC(C)(O)c1ccc(-c2ccc3nc4n(c3n2)C(c2ccccc2OC(F)(F)F)CC4F)cc1` (single isomer, unassigned) [Example 22 (e4), 2-(4-(6-fluoro-8-(2-(trifluoromethoxy)phenyl)-7,8-dihydro-6H-pyrrolo[2′,1′:2,3]imidazo[4,5-b]pyridin-2-yl)phenyl)propan-2-ol], which IC50 is on record?
A: < 1000 nM

Q: `CC(C)(O)c1ccc(-c2ccc3nc4n(c3n2)C(c2c(F)cccc2C(F)(F)F)CC4F)cc1` (single isomer, unassigned) [Example 23 (e2), 2-(4-(6-fluoro-8-(2-fluoro-6-(trifluoromethyl)phenyl)-7,8-dihydro-6H-pyrrolo[2′,1′:2,3]imidazo[4,5-b]pyridin-2-yl)phenyl)propan-2-ol] was tested. Which IC50 did it give?
A: 1000 to 10000 nM

Q: How did the IC50 turn out when `CC(C)(O)c1ccc(-c2ccc3nc4n(c3n2)C(c2cc(F)ccc2C(F)(F)F)CC4F)cc1` (single isomer, unassigned) [Example 24 (e1), 2-(4-(6-fluoro-8-(5-fluoro-2-(trifluoromethyl)phenyl)-7,8-dihydro-6H-yrrolo[2′,1′:2,3]imidazo[4,5-b]pyridin-2-yl)phenyl)propan-2-ol] was run?
A: 1000 to 10000 nM

Q: With `CC(C)(O)c1ccc(-c2ccc3nc4n(c3n2)C(c2cc(F)ccc2C(F)(F)F)CC4F)cc1` (single isomer, unassigned) [Example 24 (e2), 2-(4-(6-fluoro-8-(5-fluoro-2-(trifluoromethyl)phenyl)-7,8-dihydro-6H-yrrolo[2′,1′:2,3]imidazo[4,5-b]pyridin-2-yl)phenyl)propan-2-ol] as the molecule, how does the IC50 read?
A: 1000 to 10000 nM

Q: How did the IC50 turn out when `CC(C)(O)c1ccc(-c2ccc3nc4n(c3n2)C(c2ccccc2C(F)(F)F)CC4)cc1` (single isomer, unassigned) [Example 25 (e1), 2-(4-(8-(2-(Trifluoromethyl)phenyl)-7,8-dihydro-6H-pyrrolo[2′,1′:2,3]imidazo[4,5-b]pyridin-2-yl)phenyl)propan-2-ol] was run?
A: < 1000 nM

Q: How did the IC50 turn out when `CC(C)(O)c1ccc(-c2ccc3nc4n(c3n2)C(c2ccccc2C(F)(F)F)CC4)cc1` (single isomer, unassigned) [Example 25 (e2), 2-(4-(8-(2-(Trifluoromethyl)phenyl)-7,8-dihydro-6H-pyrrolo[2′,1′:2,3]imidazo[4,5-b]pyridin-2-yl)phenyl)propan-2-ol] was run?
A: < 1000 nM

Q: `CC(C)(O)c1ccc(-c2ccc3nc4n(c3n2)C(c2ccccc2OC(F)F)CC4)cc1` (single isomer, unassigned) [Example 26 (e1), 2-(4-(8-(2-(difluoromethoxy)phenyl)-7,8-dihydro-6H-pyrrolo[2′,1′:2,3]imidazo[4,5-b]pyridin-2-yl)phenyl)propan-2-ol] was tested. Which IC50 did it give?
A: < 1000 nM
